Experimental data as given in patent publication US20250115597A1, “TYK2 INHIBITORS AND COMPOSITIONS AND METHODS THEREOF” (LYNK PHARMACEUTICALS CO. LTD., priority 2021, published 2025).
Read-outs that look alike come from different tables or passages of the source.

Assays:
TYK2-JH2 domain = biological target: T1, TYK2-JH2 domain (Homo sapiens, UniProt P29597); experiment: Binding activity test for JH2 domain of TYK2 (Tb-antibody/tracer FRET)
T1 construct: IC50 on JH2 domain activity (nM)
Procedure: Binding Activity Test for […] Domain of JAK1 and TYK2 The compounds are prepared in DMSO for 200× top dose, then serial dilute it with 27-fold for 3 more points. Add 8 μL/well in echo source plate, echo will add 75 nL/well with 3-fold serial dilution for 11 points in assay plate. 75 nL DMSO for high control and low control. […] For low control, add 5 μL/well assay buffer. And then spin down at 1000 rpm and centrifuge for 30 seconds. After enzyme system prepared, add 5 μL of Tb-antibody solution into each wells of assay plate. Spin down at 1000 rpm and centrifuge for 30 sec. After Tb-antibody added, also add 5 μL of tracer into the assay plate. Spin down at 1000 rpm and centrifuge for 30 sec. Incubate for 60 mins at 25° C. firstly and then continue to incubate the plate at 4° C. overnight. Read by envision in FRET mode. The Luminescence value was recorded by a multi-label reader Envision (PerkinElmer).

[1] = biological target: T2, Ba/F3-FL-TYK2-P760L cells (Homo sapiens, UniProt P29597, P760L, cells depend on it); experiment: Anti-proliferative assay, Ba/F3-FL-TYK2-P760L cells (Cell-Titer Glo); type: cell-based; conditions: 72 h, read-out: BaF3-FL-T2P760L IC50
T2 construct: BaF3-FL-T2P760L (nM)
T2 sequence (P29597 whole entry P760L): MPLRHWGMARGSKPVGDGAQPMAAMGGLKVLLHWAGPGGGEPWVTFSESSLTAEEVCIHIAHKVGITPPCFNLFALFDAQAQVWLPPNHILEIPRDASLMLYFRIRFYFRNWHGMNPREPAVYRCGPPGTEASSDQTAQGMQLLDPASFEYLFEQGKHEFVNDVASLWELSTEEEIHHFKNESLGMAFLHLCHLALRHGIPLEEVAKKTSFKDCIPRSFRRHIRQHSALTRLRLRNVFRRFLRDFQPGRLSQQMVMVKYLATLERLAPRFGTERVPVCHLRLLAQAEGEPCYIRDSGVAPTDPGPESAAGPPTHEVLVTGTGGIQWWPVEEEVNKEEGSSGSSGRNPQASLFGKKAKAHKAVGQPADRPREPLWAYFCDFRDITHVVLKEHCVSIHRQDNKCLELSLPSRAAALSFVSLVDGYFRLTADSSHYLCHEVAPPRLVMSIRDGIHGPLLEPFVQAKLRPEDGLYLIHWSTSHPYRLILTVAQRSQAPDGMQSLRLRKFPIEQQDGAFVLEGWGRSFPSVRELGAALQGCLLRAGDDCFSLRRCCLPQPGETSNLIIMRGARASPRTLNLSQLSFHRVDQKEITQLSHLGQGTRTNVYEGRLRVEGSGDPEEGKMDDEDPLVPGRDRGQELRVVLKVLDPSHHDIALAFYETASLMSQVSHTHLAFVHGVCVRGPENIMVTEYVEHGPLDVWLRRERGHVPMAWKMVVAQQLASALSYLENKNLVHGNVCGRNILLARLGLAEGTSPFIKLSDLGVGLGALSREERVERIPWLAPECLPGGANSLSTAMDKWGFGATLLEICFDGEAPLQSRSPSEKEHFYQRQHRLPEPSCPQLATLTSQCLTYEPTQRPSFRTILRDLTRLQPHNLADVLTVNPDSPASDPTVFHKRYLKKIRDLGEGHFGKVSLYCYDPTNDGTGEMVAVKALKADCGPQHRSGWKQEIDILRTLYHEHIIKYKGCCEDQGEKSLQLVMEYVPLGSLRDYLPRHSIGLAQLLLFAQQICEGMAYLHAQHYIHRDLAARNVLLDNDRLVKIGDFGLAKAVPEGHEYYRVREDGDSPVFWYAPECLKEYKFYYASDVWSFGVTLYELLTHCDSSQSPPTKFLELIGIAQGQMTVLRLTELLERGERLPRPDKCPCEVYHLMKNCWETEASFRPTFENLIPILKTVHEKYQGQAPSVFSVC
Outline: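 Compound exposure ran 72 h at 37 °C in 5% CO2 across nine 3-fold concentrations from a 20 μM top dose, added 24 h after seeding 2000 cells/well.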

[2] = Microsomal metabolic stability assay; type: in vitro ADME; conditions: pH 7.4, 0.5 mg/mL protein, 1 μM compound
Procedure: Microsomal Metabolic Stability Assay
Microsomes were pre-incubated with test compound or control compounds for 5 min at 37° C. in 100 mM potassium phosphate buffer, pH 7.4, 1.0 mM EDTA. The reaction was initiated by addition of 15 μL of the NADPH regenerating system to 30 μL of each incubation mixture per time point. The final incubation condition was composed of 0.5 mg/mL microsomal protein, 1 μM test article/positive control, 2 mM NADPH. The 0-minute samples were prepared by addition of a 30 μL aliquot of each incubation mixture to 135 μL quench reagent to precipitate proteins. And then a 15 μL aliquot of the NADPH regenerating system was added. At 5, 15, 30 and 45 minutes, the reaction will be stopped by the addition of cold acetonitrile solution containing internal standard. The samples taken at all time points were centrifuged at 5000×g for 15 minutes. 50 μL of supernatant are taken into 96-well assay plates pre-added with 50 μL ultrapure water, and then analyzed by LC/MS/MS.
Concentrations of test articles, control compounds in the samples were determined by using LC/MS/MS method. Plotting of the chromatograms and peak area integrations are carried out by Analyst (AB Sciex).
n the determination of the in vitro elimination constant (ke) of the control compounds, the analyte/internal standard peak area ratios will be converted to percentage remaining (% Remaining) with the following equation: […]
The slope was measured by the natural logarithm of the percentage of the residual compound and time, T1/2 was calculated according to the following formula.

[3] = dog liver microsomes, read-out: Dog LM Clint
[4] = dog liver microsomes, read-out: Dog LM T½
[5] = human liver microsomes, read-out: Human LM Clint
[6] = human liver microsomes, read-out: Human LM T½
[7] = rat liver microsomes, read-out: Rat LM Clint
[8] = rat liver microsomes, read-out: Rat LM T½

T1 sequence (P29597 589-875 limits assumed): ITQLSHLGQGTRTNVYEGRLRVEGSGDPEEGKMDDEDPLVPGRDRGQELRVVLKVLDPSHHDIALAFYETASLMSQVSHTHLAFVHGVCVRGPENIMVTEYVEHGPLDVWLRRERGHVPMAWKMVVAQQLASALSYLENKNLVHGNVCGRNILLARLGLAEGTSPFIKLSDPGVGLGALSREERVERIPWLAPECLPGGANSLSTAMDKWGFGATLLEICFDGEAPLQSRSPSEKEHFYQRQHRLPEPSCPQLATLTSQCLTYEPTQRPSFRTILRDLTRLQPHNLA

| Compound | IC50 (TYK2-JH2 domain) [nM] | GI50 [1] [nM] | microsomal CLint at 1 μM [2, 3] [µL/min/mg] | half-life at 1 μM [2, 4] [h] | microsomal CLint at 1 μM [2, 5] [µL/min/mg] | half-life at 1 μM [2, 6] [h] | microsomal CLint at 1 μM [2, 7] [µL/min/mg] | half-life at 1 μM [2, 8] [h] |
| --- | --- | --- | --- | --- | --- | --- | --- | --- |
| [2H]C([2H])([2H])NC(=O)c1cnc(NC(=O)C2CC2)cc1Nc1cn(C2CC2)c2ncn(CC)c(=O)c12 [Example 211] | 0.71 | 174 |  |  |  |  |  |  |
| [2H]C([2H])([2H])NC(=O)c1cnc(NC(=O)C2CC2)nc1Nc1ccc2cnn(CC)c2c1OC [Example 135, 2-(Cyclopropanecarboxamido)-4-((1-ethyl-7-methoxy-1H-indazol-6-yl)amino)-N-(methyl-d3)pyrimidine-5-carboxamide] | 1.46 | 128 |  |  |  |  |  |  |
| [2H]C([2H])([2H])NC(=O)c1cnc(Nc2cccc(C#N)n2)cc1Nc1cn(C)c2c(Cl)cn(CC)c(=O)c12 [Example 163, 4-((7-Chloro-5-ethyl-1-methyl-4-oxo-4,5-dihydro-1H-pyrrolo[3,2-c]pyridin-3-yl)amino)-6-((6-cyanopyridin-2-yl)amino)-N-(methyl-d3)nicotinamide] |  | 36.7 | 12.1 | 1.91 | 82.1 | 0.282 | 101 | 0.229 |
| [2H]C([2H])([2H])NC(=O)c1cnc(NC(=O)C2CC2)cc1Nc1ccc2nnc(CC)n2c1OC [Example 58, 6-(Cyclopropanecarboxamido)-4-((3-ethyl-5-methoxy-[1,2,4]triazolo[4,3-a]pyridin-6-yl)amino)-N-(methyl-d3)nicotinamide] |  | > 5000 | < 11.5 | > 2 | < 11.5 | > 2 | < 11.5 | > 2 |
| [2H]C([2H])([2H])NC(=O)c1nnc2cc1Nc1cc(cc(-c3ccn(C)n3)c1OC)COCc1nc(ccc1F)N2 [Example 74, 18-Fluoro-10-methoxy-N-(methyl-d3)-11-(1-methyl-1H-pyrazol-3-yl)-15-oxa-2,4,5,8,21-pentaazatetracyclo[15.3.1.1^{3,7}.1^{9,13}]tricosa-1(20),3,5,7(23),9(22),10,12,17(21),18-nonaene-6-carboxamide] |  | 93.5 | 108 | 0.215 | 17.5 | 1.32 | 161 | 0.143 |
| [2H]C([2H])([2H])NC(=O)c1nnc2cc1Nc1cc(cc(-c3ncn(C)n3)c1OC)CN(C)Cc1nc(ccc1F)N2 [Example 72, 18-Fluoro-10-methoxy-N-(methyl-d3)-15-methyl-11-(1-methyl-1H-1,2,4-triazol-3-yl)-2,4,5,8,15,21-hexaazatetracyclo[15.3.1.1^{3,7}.1^{9,13}]tricosa-1(20),3,5,7(23),9(22),10,12,17(21),18-nonaene-6-carboxamide] |  | 249 | 16.2 | 1.43 | 16.9 | 1.37 | 87 | 0.266 |
| [2H]C([2H])([2H])NC(=O)c1cnc2cc1Nc1cc(cc(-c3ncn(C)n3)c1OC)COCc1cc(C(F)(F)F)cc(n1)N2 [Example 69, 10-Methoxy-N-(methyl-d3)-11-(1-methyl-1H-1,2,4-triazol-3-yl)-19-(trifluoromethyl)-15-oxa-2,4,8,21-tetraazatetracyclo[15.3.1.1^{3,7}.1^{9,13}]tricosa-1(21),3,5,7(23),9(22),10,12,17,19-nonaene-6-carboxamide] |  | 79.9 | 1.92 | 12 |  | > 2 | 3.32 | 6.97 |
| [2H]C([2H])([2H])NC(=O)c1cnc2cc1Nc1cc(cc(-c3ncn(C)n3)c1OC)COCc1cc(F)cc(n1)N2 [Example 77, 19-Fluoro-10-methoxy-N-(methyl-d3)-11-(1-methyl-1H-1,2,4-triazol-3-yl)-15-oxa-2,4,8,21-tetraazatetracyclo[15.3.1.1^{3,7}.1^{9,13}]tricosa-1(21),3,5,7(23),9(22),10,12,17,19-nonaene-6-carboxamide] |  | 61.1 | 15.4 | 1.5 | 4.59 | 5.03 | 12.2 | 1.9 |
| [2H]C([2H])([2H])NC(=O)c1cnc(Nc2ccn(C)n2)cc1Nc1cn(C)c2c(C)cn(CC)c(=O)c12 [Example 198, 4-((5-Ethyl-1,7-dimethyl-4-oxo-4,5-dihydro-1H-pyrrolo[3,2-c]pyridin-3-yl)amino)-N-(methyl-d3)-6-((1-methyl-1H-pyrazol-3-yl)amino)nicotinamide] |  | 585 | < 11.5 | > 2 | 26.4 | 0.875 | 53.8 | 0.429 |
| [2H]C([2H])([2H])NC(=O)c1cnc(Nc2ccc(F)cn2)cc1Nc1cn(C)c2ccn(CC)c(=O)c12 [Example 99, 4-[(5-Ethyl-1-methyl-4-oxo-pyrrolo[3,2-c]pyridin-3-yl)amino]-6-[(5-fluoro-2-pyridyl)amino]-N-(methyl-d3)pyridine-3-carboxamide] |  | 56.7 | 33.1 | 1.74 | 89.9 | 0.642 | 181 | 0.319 |
| [2H]C([2H])([2H])NC(=O)c1cnc(NC(=O)C2CC2)cc1Nc1csc2c(Cl)cn(C)c(=O)c12 [Example 172, 4-((7-Chloro-5-methyl-4-oxo-4,5-dihydrothieno[3,2-c]pyridin-3-yl)amino)-6-(cyclopropanecarboxamido)-N-(methyl-d3)nicotinamide] |  | 109 | 16.5 | 1.4 | 57.4 | 0.402 | 66.5 | 0.347 |
| [2H]C([2H])([2H])NC(=O)c1cnc2cc1Nc1cc(cc(-c3ncn(C)n3)c1OC)COCc1nc(ccc1F)N2 [Example 66, 18-Fluoro-10-methoxy-N-(methyl-d3)-11-(1-methyl-1H-1,2,4-triazol-3-yl)-15-oxa-2,4,8,21-tetraazatetracyclo[15.3.1.1^{3,7}.1^{9,13}]tricosa-1(20),3,5,7(23),9(22),10,12,17(21),18-nonaene-6-carboxamide] |  | 42.1 | 23.1 | 0.998 | 6.48 | 3.56 | 6.84 | 3.38 |
| [2H]C([2H])([2H])NC(=O)c1cnc(NC(=O)C2CC2)cc1Nc1csc2cnn(CC(F)(F)F)c(=O)c12 [Example 189, 6-(Cyclopropanecarboxamido)-N-(methyl-d3)-4-((4-oxo-5-(2,2,2-trifluoroethyl)-4,5-dihydrothieno[2,3-d]pyridazin-3-yl)amino)nicotinamide] |  | 247 | 1.15 | 20.1 | 6.2 | 3.73 | 26.1 | 0.884 |
| [2H]C([2H])([2H])NC(=O)c1cnc(Nc2cc(F)c(F)cn2)cc1Nc1cn(C)c2c(F)cn(C)c(=O)c12 [Example 121, 6-((4,5-Difluoropyridin-2-yl)amino)-4-((7-fluoro-1,5-dimethyl-4-oxo-4,5-dihydro-1H-pyrrolo[3,2-c]pyridin-3-yl)amino)-N-(methyl-d3)nicotinamide] |  | 42.2 | 19.9 | 1.16 | 135 | 0.171 | 115 | 0.201 |
